“And” between values parts separate entries of the source, which are not always exact repeats. Equal values may be shown once. Inconclusive results and toxic doses are left out.

For the assay, the system named is BDF1 mice, P388 leukemia ip, median survival T/C. The assay is described as follows: NCI In Vivo Anticancer Drug Screen. Data for tumor model P388 Leukemia (intraperitoneal) in B6D2F1 (BDF1) mice. The following applies: endpoint: median survival time, higher = longer survival. Put shortly: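 Antitumour effect was judged in vivo: survival in drug-treated mice, normalised to that of vehicle-dosed controls, gives the reported T/C.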

[1] abbreviates: dose: 100.0 mg/kg/injection, schedule: Q04DX003 (ip), vehicle: Klucel (hydroxypropylcellulose) (HPC).
[2] abbreviates: dose: 200.0 mg/kg/injection, schedule: Q04DX003 (ip), vehicle: Klucel (hydroxypropylcellulose) (HPC).
[3] abbreviates: dose: 400.0 mg/kg/injection, schedule: Q04DX003 (ip), vehicle: Klucel (hydroxypropylcellulose) (HPC).
The mark [4] stands for this setting: dose: 100.0 mg/kg/injection, schedule: Q01DX009 (ip), vehicle: saline with Tween-80.
[5] abbreviates: dose: 200.0 mg/kg/injection, schedule: Q01DX009 (ip), vehicle: saline with Tween-80.
Setting [6] is: dose: 100.0 mg/kg/injection, schedule: Q04DX003 (ip), vehicle: saline with Tween-80.
Where [7] appears, read: dose: 200.0 mg/kg/injection, schedule: Q04DX003 (ip), vehicle: saline with Tween-80.
[8] abbreviates: dose: 50.0 mg/kg/injection, schedule: Q01DX009 (ip), vehicle: saline with Tween-80.

Regarding `COc1ccccc1NC(=O)Oc1ccc(-c2ccccc2)cc1Br`, the T/C runs as follows: under setting [1], 95 % of control; under setting [2], 87 % of control; under setting [3], 91 % of control.
As for `O=C1NC2(CCCCC2)C(=O)N1CCN(CCCl)CCCl`, the T/C is 196 % of control (dose: 0.39 mg/kg/injection, schedule: Q01DX009 (ip), vehicle: saline); 189 % of control (dose: 0.78 mg/kg/injection, schedule: Q01DX009 (ip), vehicle: saline); 222 % of control (dose: 1.56 mg/kg/injection, schedule: Q01DX009 (ip), vehicle: saline); 291 % of control (dose: 3.12 mg/kg/injection, schedule: Q01DX009 (ip), vehicle: saline); 291 % of control (dose: 6.25 mg/kg/injection, schedule: Q01DX009 (ip), vehicle: saline); 120 % of control (dose: 12.5 mg/kg/injection, schedule: Q01DX009 (ip), vehicle: saline).
Turning to `CC(C)=CCOc1ccc(C(=O)/C=C/c2ccc(O)cc2)c(O)c1`, the T/C is 93 % of control (dose: 1.25 mg/kg/injection, schedule: Q01DX009 (ip), vehicle: Klucel (hydroxypropylcellulose) (HPC)); 115 % of control (dose: 2.5 mg/kg/injection, schedule: Q01DX009 (ip), vehicle: Klucel (hydroxypropylcellulose) (HPC)); 109 % of control (dose: 5.0 mg/kg/injection, schedule: Q01DX009 (ip), vehicle: Klucel (hydroxypropylcellulose) (HPC)); 107 % of control (dose: 10.0 mg/kg/injection, schedule: Q01DX009 (ip), vehicle: Klucel (hydroxypropylcellulose) (HPC)); 97 % of control (dose: 20.0 mg/kg/injection, schedule: Q01DX009 (ip), vehicle: Klucel (hydroxypropylcellulose) (HPC)); 98 % of control (dose: 40.0 mg/kg/injection, schedule: Q01DX009 (ip), vehicle: Klucel (hydroxypropylcellulose) (HPC)).
For `II`, the T/C is 114 % of control (dose: 12.0 mg/kg/injection, schedule: Q01DX010 (ip), vehicle: acetone); 96 % of control (dose: 25.0 mg/kg/injection, schedule: Q01DX010 (ip), vehicle: acetone); 110 % of control (dose: 50.0 mg/kg/injection, schedule: Q01DX010 (ip), vehicle: acetone).
In the case of `N=c1ccn2c(n1)OC1C(O)C(COS(=O)OC3C(CO)OC4C3Oc3nc(=N)ccn34)OC12` (configuration not stated), the T/C by setting is: (dose: 25.0 mg/kg/injection, schedule: Q01DX009 (ip), vehicle: saline with Tween-80) 122 % of control; under setting [4], 161 % of control; under setting [5], 175 % of control.
On to `CC(=O)[O][Hg][c]1c(C)c(C)c(C)c(C)c1C`, for which the T/C was 98 % of control (dose: 3.12 mg/kg/injection, schedule: Q01DX009 (ip), vehicle: Klucel (hydroxypropylcellulose) (HPC)); 109 % of control (dose: 6.25 mg/kg/injection, schedule: Q01DX009 (ip), vehicle: Klucel (hydroxypropylcellulose) (HPC)); 90 % of control and 107 % of control (dose: 12.5 mg/kg/injection, schedule: Q01DX009 (ip), vehicle: Klucel (hydroxypropylcellulose) (HPC)).
With `c1ccc2cc3c(cc2c1)Nc1cc2ccccc2cc1N3`, the T/C by setting is: under setting [4], 96 % of control; under setting [6], 100 % of control; under setting [5], 103 % of control; under setting [7], 100 % of control; (dose: 400.0 mg/kg/injection, schedule: Q01DX009 (ip), vehicle: saline with Tween-80) 100 % of control; (dose: 400.0 mg/kg/injection, schedule: Q04DX003 (ip), vehicle: saline with Tween-80) 108 % of control.
As to `CCOC(=S)SCC(=O)Nc1ccc(Cl)cc1`, the T/C was 110 % of control (dose: 75.0 mg/kg/injection, schedule: Q01DX009 (ip), vehicle: saline with Tween-80); 89 % of control (dose: 150.0 mg/kg/injection, schedule: Q01DX009 (ip), vehicle: saline with Tween-80); 89 % of control (dose: 300.0 mg/kg/injection, schedule: Q01DX009 (ip), vehicle: saline with Tween-80).
Consider `CCCCCCCCC(=O)NCc1ccc(OC)cc1`, for which the T/C is 91 % of control (dose: 100.0 mg/kg/injection, schedule: Q01DX001 (ip), vehicle: other); 100 % of control (dose: 200.0 mg/kg/injection, schedule: Q01DX001 (ip), vehicle: other); 91 % of control (dose: 400.0 mg/kg/injection, schedule: Q01DX001 (ip), vehicle: other).
Regarding `O=C1OC(=O)C2C1C1C3C=CC3C1C21C=C1` (configuration not stated), the T/C reads like this: (dose: 85.0 mg/kg/injection, schedule: Q04DX003 (ip), vehicle: Klucel (hydroxypropylcellulose) (HPC)) 95 % of control; (dose: 100.0 mg/kg/injection, schedule: Q01DX001 (ip), vehicle: saline) 113 % of control and 116 % of control; (dose: 135.0 mg/kg/injection, schedule: Q04DX003 (ip), vehicle: Klucel (hydroxypropylcellulose) (HPC)) 104 % of control; (dose: 200.0 mg/kg/injection, schedule: Q01DX001 (ip), vehicle: saline) 113 % of control; under setting [2], 113 % of control; (dose: 300.0 mg/kg/injection, schedule: Q04DX003 (ip), vehicle: Klucel (hydroxypropylcellulose) (HPC)) 118 % of control. The T/C (dose: 400.0 mg/kg/injection, schedule: Q01DX001 (ip), vehicle: saline) is 100 % of control and 104 % of control.
Regarding `c1ccc2c3c(ccc2c1)OCCOCCOc1ccc2ccccc2c1-3`, the T/C was 86 % of control under setting [8], 88 % of control under setting [4] and 92 % of control under setting [5].
The like results for `CN(C)c1ccc(/C=C/c2ccnc3c(Cl)cccc23)cc1` were, in that order, 94 % of control, 98 % of control and 100 % of control.
Regarding `O=[N+]([O-])c1ccc(S(=O)(=O)c2ccc([N+](=O)[O-])c3no[n+]([O-])c23)cc1`, the T/C (dose: 15.0 mg/kg/injection, schedule: Q01DX009 (ip), vehicle: saline with Tween-80) was 100 % of control and the T/C (dose: 30.0 mg/kg/injection, schedule: Q01DX009 (ip), vehicle: saline with Tween-80) is 90 % of control.
In the case of `COc1cc(C2NC(=O)C(C#N)=C(Nc3cccc(C)c3)S2)ccc1O` (configuration not stated), the T/C was 101 % of control under setting [8], 114 % of control under setting [4] and 119 % of control under setting [5].
With `COc1cc(Cc2cc(OC)c(O)c(OC)c2)cc(OC)c1O`, the T/C was 95 % of control under setting [1], 100 % of control under setting [2] and 100 % of control under setting [3].
On to `CCOC(=O)C1CC[N+](=c2cc(-c3ccc(Cl)cc3)ss2)CC1` (configuration not stated), for which the T/C by setting is: (dose: 50.0 mg/kg/injection, schedule: Q01DX009 (ip), vehicle: saline) 101 % of control; (dose: 50.0 mg/kg/injection, schedule: Q04DX003 (ip), vehicle: saline) 106 % of control; (dose: 100.0 mg/kg/injection, schedule: Q01DX009 (ip), vehicle: saline) 99 % of control; (dose: 100.0 mg/kg/injection, schedule: Q04DX003 (ip), vehicle: saline) 116 % of control; (dose: 200.0 mg/kg/injection, schedule: Q04DX003 (ip), vehicle: saline) 116 % of control; (dose: 400.0 mg/kg/injection, schedule: Q04DX003 (ip), vehicle: saline) 116 % of control.
As to `CC1(c2ccco2)C(=O)NC(=O)N1C(=O)CCl` (configuration not stated), the T/C under setting [8] is 100 % of control, the T/C under setting [4] was 100 % of control, the T/C under setting [6] is 96 % of control and the T/C under setting [7] is 96 % of control.
`COc1ccc(C(O)(CS(C)=O)c2cccs2)cc1` (configuration not stated): the T/C reads like this: under setting [4], 107 % of control; under setting [5], 99 % of control.
For `COc1cccc2c1C(=O)c1c(O)c3c(c(O)c1C2=O)C[C@@](O)(C(C)=O)C[C@@H]3OC(=O)CCN`, the T/C (dose: 1.56 mg/kg/injection, schedule: Q01DX009 (ip), vehicle: water) is 100 % of control and 123 % of control; the T/C (dose: 3.12 mg/kg/injection, schedule: Q01DX009 (ip), vehicle: water) is 93 % of control; the T/C (dose: 6.25 mg/kg/injection, schedule: Q01DX009 (ip), vehicle: water) was 169 % of control.
